Measured values published in patent US20220218652A1, “METHODS OF TREATING CYTOKINE RELEASE SYNDROME” (The General Hospital Corporation, priority 2018, published 2022).

What was measured:
BV2 microglial cells = test: Aβ42 uptake by ELISA and confocal microscopy in naive BV2 microglial cells; format: cell-based
Procedure: (§1) Naive BV2 microglial cells were treated with DMSO (control) or cromolyn (500 μM) for 16 hours. Afterwards, the cells were incubated with fluoresceraly-labeled A1342 (red) and DMSO or cromolyn for 2 hours. After incubation, the cells were labeled with a plasma membrane dye (PM, green) and imaged. BV2 microglial cells or BV2 cells stably expressing CD33 (BV2-CD33wT) were treated with DMSO or different concentrations of cromolyn for 16 hours. Then, cells were incubated with soluble untagged Aβ42 and DMSO or cromolyn for 2 hours and collected for ELBA analysis.

TgSOD1 mice [1] = test: Meso Scale Discovery multi-spot cytokine assay, plasma of TgSOD1 mice; format: in vivo; details: 6.3 mg/kg i.p.
Procedure: (§2) Cromolyn. sodium was provide by AZ Therapies and dissolved in PBS. 100 mM solution was used for in vivo experiments. Dulbecco's PBS was used to dilute the solution for intraperitoneal injections for a final dose of 6.3 mg/kg.
(§3) 149 male and female age- and litter-matched transgenic TgSOD1^G93A and wild-type WtSOD1^G93A mice were used with the following breakdown: Females (19 WtSOD1-Vehicle, 17 WtSOD1-Cromolyn, 19 TgSOD1-Vehicle, and 17 TgSOD1-Cromolyn) and Males (18 WtSOD1-Vehicle, 21 WtSOD1-Cromolyn, 21 TgSOD1-Vehicle, 17 TgSOD1-Cromolyn). The mice received once daily injections of either vehicle or cromolyn sodium (6.3 mg/kg, […] i.p.) 5 days per week starting at P60 until euthanasia.
(§4) B6SJL-Tg (SOD1 G93A)1Gur/J transgenic male mice were obtained from Jackson Laboratory and bred with C57BL/6 female mice to obtain wild-type WtSOD1 and mutant transgenic TgSOD1^G93A-expressing mice. To determine mouse genotype, RNA extraction and complimentary DNA (cDNA) synthesis was performed from tail biopsies acquired at postnatal day 28-40 followed by quantitative real-time PCR (qRT-PCR) using primers for the mutant G93A SOD1 gene (GGGAAGCTGTTGTCCCA AG and […])(SEQ ID NO: 1 and SEQ ID NO: 2, respectively). Both age- and litter-matched WtSOD1 and TgSOD1 male. and female mice were used for all studies as described below.
Spinal cord frozen tissue was homogenized in ice-cold RIPA buffer (Thermo Fisher Scientific, #8990) supplemented with protease inhibitor cocktail (Thermo Fisher Scientific, #78430). Samples were centrifuged at 45,000 g for 30 minutes at 4° C. using an Optima TL ultracentrifuge and a TLA 120.2 rotor (Beckman Coulter). Expression levels of the cytokines were assessed in the supernatants derived from spinal cord tissue or in the plasma, using an electrocheiniluminescence-based multi-array method and MESO Quickplex SQ 120 system (MSD, Rockville, Md., USA). The 96-well V-FLEX Proinflammatory Mouse 1 Kit (Meso Scale Discovery, #K15048D) was used to measure simultaneously IL-1β, IL-2, IL-5, IL-6, IL-10, and TNFα, following the manufacturer's instructions. Briefly, samples were diluted in the calibrator and added to the plate coated with an array of cytokine capture antibodies. Samples were incubated. in the plate for 2 hours with shaking at room temperature, followed by washes with the wash buffer provided in the kit. The detection antibody solution was added to each well and the plate was incubated for 2 hours. The plate was washed with the wash buffer and the 2× Read Buffer T was added. The signal was immediately measured on a MESO QuickIlex SQ 120 instrument and was analyzed using the DISCOVERY WORKBENCH 4.0 software (Meso Scale Diagnostics, LLC., Rockville, Md., USA). Protein concentrations in the supernatants or the plasma samples were measured using the Pierce BCA protein assay kit (Thermo Scientific). Values in the graphs represent levels of cytokines normalized to the corresponding protein concentrations.
Data are presented as median values. Box plots are used for graphical representation of population data with the central line representing the median, the edges representing the interquartile ranges, and the whiskers representing 10-90th percentiles. Data are also represented as medians±interquartile ranges or percent values. Sample sizes are included in the figure legends. Comparisons for unrelated samples were performed using a two-way ANOVA followed by Tukey's or Sidak's multiple comparison's test or a one-way ANOVA test followed by Tukey's multiple comparison post-tests at a significance level (a) of 0.05. For p<0.05 and >0.00001, exact P values (two-tailed) are reported.
Additionally, levels of L-1β, IL-2, IL-5, IL-6, IL-10, and TNFα were assessed in the plasma of a subset of mice (Females: 13 WtSOD1-Vehicle, 15 WtSOD1-Cromolyn, 6 TgSOD1-Vehicle, and 6 TgSOD1-Cromolyn; and Males: 14 WtSOD1-Vehicle, 10 WtSOD1-Cromolyn, 6 TgSOD1-Vehicle, 3 TgSOD1-Cromolyn).

BV2-CD33wT cells = test: Aβ42 uptake by ELISA in BV2 cells stably expressing CD33; format: cell-based
Procedure: as §1

TgSOD1 mice [2] = test: Meso Scale Discovery multi-spot cytokine assay, spinal cord lysates of TgSOD1 mice; format: in vivo; details: TgSOD1-Cromolyn vs TgSOD1-Vehicle; cromolyn sodium 6.3 mg/kg i.p. once daily, 5 days per week from P60; p=0.0273
Procedure: as §2, §3
as §4, with “below. […]” for “below.”

[3] = 16 hours pretreatment, then 2 hours with Aβ42, vs vehicle (DMSO), ELISA
[4] = different concentrations of cromolyn

O=C(O)c1cc(=O)c2c(OCC(O)COc3cccc4oc(C(=O)O)cc(=O)c34)cccc2o1 [cromolyn, cromolyn sodium] was tested, and the “Aβ42 uptake in naive BV2 microglial cells” value (BV2 microglial cells; [3]) was “increased Aβ42 uptake”, the “dose dependence of Aβ42 uptake modulation, naive BV2 cells” value (BV2 microglial cells; [4]) was “dose-dependent effect” and the “IL-10 level in plasma” value (TgSOD1 mice [1]; TgSOD1-Cromolyn vs TgSOD1-Vehicle, p=0.0095) was “significantly decreased”. For the same compound, the “IL-2 level in plasma” value (TgSOD1 mice [1]; TgSOD1-Cromolyn vs TgSOD1-Vehicle, p=0.0211) was “significantly decreased”, the “IL-6 level in plasma” value (TgSOD1 mice [1]; TgSOD1-Cromolyn vs TgSOD1-Vehicle, p=0.0273) was “significantly decreased” and the “TNFα level in plasma” value (TgSOD1 mice [1]; TgSOD1-Cromolyn vs TgSOD1-Vehicle, p=0.110) was “trend towards a decrease”. For the same compound, the “IL-1β level in plasma” value (TgSOD1 mice [1]; between groups) was “no statistically significant difference”, the “IL-5 level in plasma” value (TgSOD1 mice [1]; between groups) was “no statistically significant difference” and the “internalized Aβ42 in BV2-CD33wT cells” value (BV2-CD33wT cells; [3]) was “increased levels of internalized Aβ42”. The “dose dependence of Aβ42 uptake modulation, BV2-CD33wT cells” value (BV2-CD33wT cells; [4]) was “dose-dependent effect” and the “TNFα level in spinal cord” value (TgSOD1 mice [2]) was “significant decrease”.
